# Source: patent US20160115136A1, “COMPOUNDS, COMPOSITIONS COMPRSING SAME, AND METHODS RELATED THERETO” (UNIVERSITY OF IOWA RESEARCH FOUNDATION, priority 2013, published 2016)
# Values joined by “and” are separate entries in the source; they are usually repeats but may differ in a detail not shown here. Equal entries are not always repeated. Where two headings read alike, the source gives them in different places.
# Key:
# [1] = test system: glutamate racemase isozyme 2 from Bacillus anthracis (RacE2); assay: biochemical; format: biochemical; conditions: FIG. 14, competitive inhibition model
# [2] = target: T1, glutamate racemase from H. pylori (Helicobacter pylori, UniProt P56068); format: biochemical
# T1 sequence (P56068 1-255): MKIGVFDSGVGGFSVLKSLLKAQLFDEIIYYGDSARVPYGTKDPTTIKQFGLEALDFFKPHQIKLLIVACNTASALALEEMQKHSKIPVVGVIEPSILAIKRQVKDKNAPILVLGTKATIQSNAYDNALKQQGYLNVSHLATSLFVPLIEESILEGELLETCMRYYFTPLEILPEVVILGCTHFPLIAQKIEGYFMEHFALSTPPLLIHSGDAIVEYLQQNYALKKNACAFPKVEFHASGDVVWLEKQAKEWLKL
# [3] = target: T2, glutamate racemase (GR) from B. subtilis (Bacillus subtilis, UniProt P94556); conditions: for Ki: read-out: Ki value
# T2 sequence (P94556 whole entry): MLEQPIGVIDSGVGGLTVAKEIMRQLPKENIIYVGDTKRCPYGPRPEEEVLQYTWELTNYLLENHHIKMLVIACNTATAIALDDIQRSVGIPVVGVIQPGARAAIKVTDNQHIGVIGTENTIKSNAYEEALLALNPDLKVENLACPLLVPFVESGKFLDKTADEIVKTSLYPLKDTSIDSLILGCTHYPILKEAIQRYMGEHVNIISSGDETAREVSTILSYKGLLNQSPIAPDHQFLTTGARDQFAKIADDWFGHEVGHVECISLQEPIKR
# [4] = test system: B. subtilis; assay: Cell wall lysis assay (modified CytoTox-Glo, luminescence)
# [5] = test system: S. aureus; assay: as above
# [6] = test system: B. subtilis DB104; assay: Inhibition of bacterial growth (MIC50, absorbance at 600 nm, 24 h)
# [7] = test system: E. coli Acella; assay: as above; conditions: for growth inhibition: concentrations <3 mg mL^−1
# [8] = test system: S. aureus ATCC 12600; assay: as above; conditions: for growth inhibition: concentrations <3 mg mL^−1
# [9] = target: T3, glutamate racemase isozyme 2 from Bacillus anthracis (RacE2) (Bacillus anthracis, UniProt A0A6L8PKK6); format: biochemical; conditions: 25° C., pH 8.0
# T3 sequence (A0A6L8PKK6 1-269): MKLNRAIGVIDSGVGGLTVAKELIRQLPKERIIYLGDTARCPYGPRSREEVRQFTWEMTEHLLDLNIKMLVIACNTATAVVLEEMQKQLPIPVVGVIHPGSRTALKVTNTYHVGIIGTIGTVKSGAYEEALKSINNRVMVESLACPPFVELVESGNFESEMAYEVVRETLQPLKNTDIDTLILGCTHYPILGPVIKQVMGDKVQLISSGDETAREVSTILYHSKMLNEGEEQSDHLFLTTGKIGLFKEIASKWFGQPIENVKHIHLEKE
# [10] = target: GR from B. anthracis isozyme 1 (RacE1) (Bacillus anthracis, UniProt A0A6L8PVU3); assay: biochemical
# GR from B. anthracis isozyme 1 (RacE1), sequence (A0A6L8PVU3 1-276): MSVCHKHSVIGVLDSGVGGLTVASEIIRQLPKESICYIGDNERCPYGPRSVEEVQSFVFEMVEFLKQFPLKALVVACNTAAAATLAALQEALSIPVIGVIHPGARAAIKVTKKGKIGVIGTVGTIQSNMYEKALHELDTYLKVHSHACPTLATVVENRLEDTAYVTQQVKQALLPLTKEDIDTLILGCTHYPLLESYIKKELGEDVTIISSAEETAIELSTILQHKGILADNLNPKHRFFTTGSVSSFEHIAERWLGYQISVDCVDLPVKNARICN
# [11] = target: T3, glutamate racemase isozyme 2 from Bacillus anthracis (RacE2); assay: biochemical; format: biochemical
# [12] = target: GR from F. tularensis (Francisella tularensis, UniProt Q5NFN6); assay: biochemical
# GR from F. tularensis, sequence (Q5NFN6 1-265): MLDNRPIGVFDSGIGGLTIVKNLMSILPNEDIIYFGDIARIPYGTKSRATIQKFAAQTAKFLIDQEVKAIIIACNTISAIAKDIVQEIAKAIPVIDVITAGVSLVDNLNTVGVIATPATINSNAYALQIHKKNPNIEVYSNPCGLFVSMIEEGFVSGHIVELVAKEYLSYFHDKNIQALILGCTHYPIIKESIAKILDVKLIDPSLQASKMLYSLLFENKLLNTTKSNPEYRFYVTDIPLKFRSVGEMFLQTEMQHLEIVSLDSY
# [13] = target: T2, glutamate racemase (GR) from B. subtilis; assay: biochemical
# [14] = Ki converted into binding energy divided by number of non-hydrogen atoms
# [15] = from log(Ki) and calculated logP (MarvinSketch)
# [16] = Staphylococcus aureus, ATCC12600
compound,measurement,setting,value
7-fluoro-2-sulfo-1H-benzo[d]imidazole-5-carboxylic acid [Compound 4] [listing 1 of 2 here],potency against B. anthracis RacE2 relative to B. subtilis GR,[1],equal potency
same,IC50,"[2]; best-fit value, Table 5",102 µM
same,Hill Slope (best-fit value),[2]; dose-response fit,−6.498
same,IC50,"[2]; dose-response inhibition model, FIG. 16",~100 µM
same,LogIC50 (best-fit value),[2]; log of compound concentration in mM,−0.9935
same,LE (ligand efficiency),[3]; [14],0.45 kcal mol^−1 atom^−1
same,Ki,[3],2.5 µM
same,EC50 for lysis,[4],520 µg/mL
same,increase in luminescence,[4]; low-millimolar range,400%
same,EC50,"[4]; read-out: EC50 value of cell lysis, FIG. 17, within the same range as the MIC50",~2 mM
same,increase in luminescence,"[5]; S. aureus, millimolar inhibitor concentration range",~40%
same,MIC50,[6]; B. subtilis,260 ± 110 µg/mL
same,MIC50 value for growth inhibition,[6]; B. subtilis,260 µg/mL
same,MIC50,"[6]; B. subtilis, FIG. 15","1,788 μM and 460 μg/mL"
same,MIC50 value for bacterial growth inhibition,"[6]; B. subtilis, FIG. 17",2 mM
same,MIC50,[7]; E. coli,1600 ± 200 µg/mL
same,MIC50,[8]; S. aureus,1000 ± 250 µg/mL
7-fluoro-2-sulfo-1H-benzo[d]imidazole-5-carboxylic acid [Compound 4] [listing 2 of 2 here],Ki,[9],5.4 ± 2.5 µM
"O=S(=O)(O)c1nc2ccccc2[nH]1 [Compound 2, 1H-benzimidazole-2-sulfonic acid]",IC50,[10],120 ± 5 µM
same,IC50,[11],40 ± 5 µM
same,IC50,[12],110 ± 12 µM
same,LE (ligand efficiency),[3],0.53 kcal mol^−1 atom^−1
same,LiPE (lipophilic efficiency),[3],5.3
same,Ki,[3]; GR from B. subtilis,9 µM
same,IC50,[13],250 ± 20 µM
same,MIC50,"[6]; Bacillus subtilis, DB104",720 ± 60 µg/mL
Cc1ccc2[nH]c(S(=O)(=O)O)nc2c1 [Compound 15],LE (ligand efficiency),[3]; [14],0.46 kcal mol^−1 atom^−1
same,LiPE (lipophilic efficiency),[3]; [15],4.4
same,Ki,[13],21 ± 5 µM
same,MIC50,"[6]; Bacillus subtilis, DB104",> 3000 µg/mL
"CCCCNS(=O)(=O)c1ccc2[nH]c(S(=O)(=O)O)nc2c1 [Compound 18, 5-(n-butylsulfamoyl)-1H-benzo[d]imidazole-2-sulfonic acid]",LE (ligand efficiency),[3]; [14],0.30 kcal mol^−1 atom^−1
same,LiPE (lipophilic efficiency),[3]; [15],5.0
same,Ki,[13],12 ± 3.6 µM
same,MIC50,"[6]; Bacillus subtilis, DB104",360 ± 20 µg/mL
same,growth inhibition,[7]; E. coli,no significant growth inhibition
same,MIC50,[7]; Escherichia coli,> 3000 µg/mL
same,growth inhibition,[8]; S. aureus,no significant growth inhibition
same,MIC50,[8]; [16],> 3000 µg/mL
O=C(c1ccccc1)c1ccc2[nH]c(S(=O)(=O)O)nc2c1 [Compound 24],loss in binding affinity versus parent compound,[3],~100 fold
same,LE (ligand efficiency),[3]; [14],0.20 kcal mol^−1 atom^−1
same,LiPE (lipophilic efficiency),[3]; [15],1.9
same,Ki,[13],830 ± 75 µM
same,MIC50,"[6]; Bacillus subtilis, DB104",140 ± 20 µg/mL
O=S(=O)(O)c1nc2ccc(Cl)cc2[nH]1 [Compound 26],LE (ligand efficiency),[3]; [14],0.48 kcal mol^−1 atom^−1
same,LiPE (lipophilic efficiency),[3]; [15],4.5
same,Ki,[13],13 ± 2.4 µM
same,MIC50,"[6]; Bacillus subtilis, DB104",> 3000 µg/mL
"O=S(=O)(O)c1nc2cc(S(=O)(=O)N3CCOCC3)ccc2[nH]1 [Compound 29, 5-(morpholinosulfonyl)-1H-benzo[d]imidazole-2-sulfonic acid]",LE (ligand efficiency),[3]; [14],0.34 kcal mol^−1 atom^−1
same,LiPE (lipophilic efficiency),[3]; [15],6.6
same,Ki,[13],6.4 µM
same,MIC50,"[6]; Bacillus subtilis, DB104",320 ± 10 µg/mL
same,growth inhibition,[7]; E. coli,no significant growth inhibition
same,MIC50,[7]; Escherichia coli,> 3000 µg/mL
same,growth inhibition,[8]; S. aureus,no significant growth inhibition
same,MIC50,[8]; [16],> 3000 µg/mL
"CC1(C)S[C@@H]2[C@H](NC(=O)[C@H](N)c3ccccc3)C(=O)N2[C@H]1C(=O)O [ampicillin, reference compound]",luminescence response (cell lysis),"[5]; S. aureus exposed 24 h, control antibiotics, FIG. 23A",dose-dependent increase in luminescence
